The test system of experiment [1] is Staphylococcus aureus. Description: Antimicrobial activity against Staphylococcus aureus. In kind it is functional.
For experiment [2], the target named is T1, Cell division protein FtsZ (Staphylococcus aureus) (UniProt P0A031).
T1 sequence (whole entry): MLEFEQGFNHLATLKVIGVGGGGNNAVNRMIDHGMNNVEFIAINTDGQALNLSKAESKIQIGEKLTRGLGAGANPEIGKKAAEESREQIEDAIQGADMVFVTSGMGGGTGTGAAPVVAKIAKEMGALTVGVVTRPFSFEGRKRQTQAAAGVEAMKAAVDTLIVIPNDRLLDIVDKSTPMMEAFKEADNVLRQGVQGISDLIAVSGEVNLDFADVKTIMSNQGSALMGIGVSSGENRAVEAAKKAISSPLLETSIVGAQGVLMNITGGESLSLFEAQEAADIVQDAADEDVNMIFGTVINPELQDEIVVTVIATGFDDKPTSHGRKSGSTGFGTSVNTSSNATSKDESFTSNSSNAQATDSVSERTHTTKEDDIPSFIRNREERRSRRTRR
Description: Activation of Staphylococcus aureus FtsZ assessed as increase in GTPase activity by malachite green assay.

In experiment [3] the target is T2, Cell division protein FtsZ (Escherichia coli K-12) (UniProt P0A9A6).
T2 sequence (whole entry): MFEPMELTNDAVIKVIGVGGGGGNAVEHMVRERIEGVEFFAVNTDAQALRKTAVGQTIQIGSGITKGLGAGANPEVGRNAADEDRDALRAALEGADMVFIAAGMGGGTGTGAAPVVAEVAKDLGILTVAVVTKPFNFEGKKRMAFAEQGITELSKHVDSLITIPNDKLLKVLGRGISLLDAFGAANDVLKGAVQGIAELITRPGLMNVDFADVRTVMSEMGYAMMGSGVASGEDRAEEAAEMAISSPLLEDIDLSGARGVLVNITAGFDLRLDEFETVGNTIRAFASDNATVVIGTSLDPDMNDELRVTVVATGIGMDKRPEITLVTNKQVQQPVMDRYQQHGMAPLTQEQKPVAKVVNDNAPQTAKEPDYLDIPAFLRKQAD
Description: Inhibition of Escherichia coli FtsZ assessed as reduction in GTPase activity by malachite green assay.

In experiment [4] the test system is Staphylococcus aureus. As to the kind of experiment: Antimicrobial activity against methicillin resistant Staphylococcus aureus. The experiment is classed as functional.
Experiment [5] has as its target T2, Cell division protein FtsZ (Escherichia coli K-12). Description: Inhibition of Escherichia coli FtsZ assessed as reduction in polymerization.
For a further experiment, the system named is Bacillus subtilis. Description: Antimicrobial activity against Bacillus subtilis. The experiment is classed as functional.
In another experiment the test system is Escherichia coli. As to the kind of experiment: Antimicrobial activity against Escherichia coli. The experiment is classed as functional.
For experiment [6], the target named is T3, Cell division protein FtsZ (Mycobacterium tuberculosis) (UniProt P9WN95).
T3 sequence (whole entry): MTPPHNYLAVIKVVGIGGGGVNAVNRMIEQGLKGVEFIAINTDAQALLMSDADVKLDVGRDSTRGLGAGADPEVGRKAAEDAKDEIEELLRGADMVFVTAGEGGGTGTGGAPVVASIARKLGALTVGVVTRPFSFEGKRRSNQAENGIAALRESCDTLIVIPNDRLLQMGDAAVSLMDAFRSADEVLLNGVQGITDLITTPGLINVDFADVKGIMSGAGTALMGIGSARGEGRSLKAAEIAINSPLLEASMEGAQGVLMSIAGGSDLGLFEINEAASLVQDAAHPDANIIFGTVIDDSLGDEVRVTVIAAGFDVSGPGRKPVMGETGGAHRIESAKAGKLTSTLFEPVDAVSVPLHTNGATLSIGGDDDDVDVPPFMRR
As to the kind of experiment: Inhibition of Mycobacterium tuberculosis FtsZ assessed as reduction in GTPase activity by malachite green assay.

Experiment [7] addresses T3, Cell division protein FtsZ (Mycobacterium tuberculosis). As to the kind of experiment: Inhibition of Mycobacterium tuberculosis FtsZ assessed as reduction in GTPase activity by coupled enzyme assay.
Experiment [8] concerns the target T2, Cell division protein FtsZ (Escherichia coli K-12). As to the kind of experiment: Inhibition of Escherichia coli FtsZ assessed as reduction in GTPase activity by coupled enzyme assay.
The target in experiment [9] is T1, Cell division protein FtsZ (Staphylococcus aureus). Description: Inhibition of Staphylococcus aureus FtsZ assessed as reduction in GTPase activity by coupled enzyme assay.
Experiment [10] addresses T4, Cell division protein FtsZ (Escherichia coli K-12, UniProt P0A9A6).
T4 sequence (P0A9A6 whole entry): T2 sequence (whole entry)
Description: Displacement of bis-ANS from Escherichia coli FtsZ.

Another experiment has as its system Enterococcus faecalis. Description: Antimicrobial activity against Enterococcus faecalis. The experiment is classed as functional.
Experiment [11] in a line: Inhibition of ZipA-FtsZ protein-protein interaction (unknown origin) assessed as reduction in binding of fluorescein-labeled analogue of FtsZ C-terminal residues (367 to 383 residues) to C-terminal domain of ZipA (185 to 328 residues) by fluorescence polarization assay.
Experiment [12] deals with T5, Cell division protein FtsZ (Bacillus subtilis) (UniProt A5Z1V5).
T5 sequence (whole entry): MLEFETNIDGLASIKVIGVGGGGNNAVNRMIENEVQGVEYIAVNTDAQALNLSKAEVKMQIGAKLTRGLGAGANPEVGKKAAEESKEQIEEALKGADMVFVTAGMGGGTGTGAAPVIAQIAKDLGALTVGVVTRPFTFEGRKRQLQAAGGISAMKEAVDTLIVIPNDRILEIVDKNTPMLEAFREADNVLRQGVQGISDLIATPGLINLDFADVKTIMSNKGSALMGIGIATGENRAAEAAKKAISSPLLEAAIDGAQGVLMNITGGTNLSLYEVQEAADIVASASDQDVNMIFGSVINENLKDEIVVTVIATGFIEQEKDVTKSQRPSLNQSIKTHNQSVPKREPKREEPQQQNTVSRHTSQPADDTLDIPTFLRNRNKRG
Description: Inhibition of Bacillus subtilis FtsZ assessed as reduction in GTPase activity by malachite green assay.

Experiment [13] concerns Mycolicibacterium smegmatis. As to the kind of experiment: Antimicrobial activity against Mycobacterium smegmatis. In kind it is functional.
The target in experiment [14] is T2, Cell division protein FtsZ (Escherichia coli K-12).
Description: Binding affinity to Escherichia coli FtsZ

Structures are written as SMILES. Values after ≈ are worked out from the molar mass of the structure shown.

One may read the MIC as the smallest concentration in the dilution series that meets the test's criterion for growth inhibition. For the compound `NC(=O)c1c(F)ccc(OCc2nc3cc(Cl)cnc3s2)c1F`, the minimum inhibitory concentration (MIC) with Staphylococcus aureus [1] was determined as 1 mg/L (≈ 2.81 µM). Moreover, the Activity in [2] came to 0.1 µM.
For the compound `Oc1cc(O)c2c(c1)C/C(Cl)=C\Cc1cc(c(Cl)cc1O)Oc1c(O)cc(cc1O)C/C(Cl)=C\Cc1cc(c(Cl)cc1O)O2`, the figures for the INH (in experiment [3]; in the experiment on Staphylococcus aureus [4]) were 9.88 µM and 1.5 µg/mL, respectively. Moreover, the MIC in the experiment on Staphylococcus aureus [1] came out at 1.8 mg/L (≈ 2.65 µM).
Usually IC50 stands for the midpoint of a concentration-inhibition curve. Turning to `CCN(CC)CCNc1nc(/C=C/c2ccc(Cl)cc2)nc2cc3ccccc3cc12`, the concentration for half-maximal inhibition (IC50) in [5] and in [8] was 15 µM in each case. The figures for the minimal inhibitory concentration (MIC) with Bacillus subtilis and with Escherichia coli were 1.08 mg/L (≈ 2.51 µM) and more than 34 mg/L, respectively. In addition, the INH was 4.31 µg/mL in the experiment on Staphylococcus aureus [4], 50 µM in [6] and 50 µM in experiment [7].
Turning to `CCC(CC)c1cc([C@H]2CN3CC[C@H]2C[C@@H]3CN)nc(-c2ccncc2)n1`, the minimal inhibitory concentration (MIC) turned out to be 6.53 mg/L (≈ 17.9 µM) in the experiment with Staphylococcus aureus [1] and 13.1 mg/L (≈ 35.8 µM) with Escherichia coli. Moreover, the INH in experiment [9] was 37.5 µM.
A word on the Kd: it is the free concentration of one partner at which half of the binding sites on the other are occupied at equilibrium, for simple one-to-one binding. As to `COc1ccc2cc3[n+](cc2c1OC)CCc1cc2c(cc1-3)OCO2.[Cl-]` [BERBERINE CHLORIDE], the half-maximal inhibitory concentration (IC50) in [5] stood at 10 µM. Further, the results for the INH (in experiment [3]; with Escherichia coli) were 16 µM and more than 400 µM, respectively. In addition, the MIC with Bacillus subtilis was 100 mg/L; with Staphylococcus aureus [1] it was 32 to 128 mg/L. In [10], this compound had a Kd of 0.023 µM.
As for `O=C(O)c1ccc(-c2cccc(-c3c(-c4ccccc4)[nH]c4ccccc34)c2)cc1`, the values for the MIC in the experiment on Bacillus subtilis, in the experiment on Staphylococcus aureus [1] and against Enterococcus faecalis were 4 mg/L (≈ 10.3 µM), 4 to 8 mg/L and 8 to 16 mg/L, respectively. The half-maximal inhibitory concentration (IC50) in [11] came out at 192 µM.
As to `CC(=O)O[C@@]12CO[C@@H]1C[C@H](O)[C@@]1(C)C(=O)[C@H](O)C3=C(C)[C@@H](OC(=O)/C=C/c4ccc5ccccc5c4)C[C@@](O)([C@@H](OC(=O)c4ccccc4)[C@H]21)C3(C)C`, the INH in the experiment on Bacillus subtilis turned out to be 38 µM; in [12], 35 µM; in experiment [13], 60 µM.
Regarding `O=C/C=C/c1ccccc1` [CINNAMALDEHYDE], the INH in experiment [3] was 5.81 µM; in the experiment on Bacillus subtilis, 500 mg/L; in the experiment with Staphylococcus aureus [1], 250 mg/L; in the experiment with Escherichia coli, 1000 mg/L. For the same compound, the Ka in experiment [14] was 1 µM.
